Earlier results in patent publication US10016389B2, “Method of making liposomes, liposome compositions made by the methods, and methods of using the same” (LivOn Laboratories, priority 2011, dated 2018).

Columns and labels:
[1] = not given; remark: listed apart in the source
[2] = not given; remark: listed apart in the source
[3] = not given; remark: listed apart in the source
[4] = rat populations
[5] = 1000 mg daily, 42 days

SMILES | survival rate after a stroke vs untreated animals | improvement of insulin sensitivity ([1]; oral 600, 1200 or 1800 mg/day, after 4 weeks) [%] | improvement of insulin-stimulated glucose disposal (insulin sensitivity) ([1]; single intravenous infusion of 1000 mg, vs placebo infusion) [%] | peak plasma concentrations ([2]; 3 g orally every 4 hours, predicted by pharmacokinetic modeling) [µmol/L] | half-life ([2]; in vivo) [min] | plasma concentrations ([2]; intravenous administration) | reduction of risk of cerebrovascular deaths ([3]; Linxian trial, 120 mg daily plus molybdenum for 5-6 years, 10 years follow-up) [%] | lower risk of coronary heart disease ([3]; ≥700 mg/day, pooled analysis of nine studies) [%] | oral LD50 [4] | average fasting blood glucose levels ([5]; fell from 169.33 mg/dl) [mg/dL] | average LDL ([5]; reduced from 130.95 mg/dl) [mg/dL] | Average HbA1C ([5]; reduced from 8,82%) [%] | Insulin levels ([5]; reduced from 16.91 microunits/mL) [microunits/mL]
O=C(O)CCCCC1CCSS1 (racemic) [racemic ALA, alpha lipoic acid] | four times greater survival rate | 25 | 50 |  |  |  |  |  |  |  |  |  | 
O=C1O[C@H]([C@@H](O)CO)C(O)=C1O [vitamin C, L-ascorbic acid] |  |  |  | 220 | 30 | ≤ 26,000 micromol/L | 8 | 25 | 11,900 mg per kg | 144.80 | 125.91 | 7.66 | 8.77
